Results published in patent US20050182252A1, “Novel 2'-C-methyl nucleoside derivatives” (priority 2004, published 2005).
Entries after “also recorded” stand apart in the source; their conditions may differ. Where a name gives a salt, the structure may show the parent alone.

Assays:
[1] = design: species or system C57BL/6 mice; conditions: in vivo; for Liver NTP AUC: mouse
Method: The liver specificity of the compound 19 prodrug was compared relative to the parent nucleoside, 2′-C-methylguanosine, and for compound 21.1 prodrug relative to its parent nucleoside, 2′-C-methyladenosine, by measuring the generation of NTP in the liver compared to nucleoside in the plasma.
Compound 19 or 2′-C-methylguanosine were administered intraperitoneally to C57BL/6 mice at a dose of 30 mg/kg based on nucleoside equivalents (30 mg/kg 2′-C-methylguanosine and 53.27 mg/kg compound 19). Compound 21.1 or 2′-C-methyladenosine were administered intravenously to C57BL/6 mice at dose of about 5.5 mg/kg nucleoside equivalents (5.5 mg/kg 2′-C-methyladenosine and 10 mg/kg compound 21.1). Plasma concentrations of 2′-C-methylguanosine, compound 19, 2′-C-methyladenosine, and compound 21.1 were determined by HPLC-UV and the liver concentrations of the 5′-triphosphate of 2′-C-methylguanosine and 2′-C-methyladenosine were measured by LC-MS using the standard ion-pairing chromatography method for triphosphate as described in Example E. Conventional SAX HPLC-UV could not differentiate between endogenous GTP and 2′-C-methylguanosine triphosphate. Since an authentic standard of 2′-C-methylguanosine triphosphate was not available, the liver concentrations of the nucleotide were approximated as described in Example E.

HCV = assay: HCV-infected human liver slice assay (HCV RNA in culture medium); type: cell-based; conditions: for Log10 decrease in viral RNA from control at 48-72 h: HCV RNA in culture medium of HCV-infected human liver slices; for HCV RNA levels in the liver slice culture media versus control, untreated slices: in words, treatment for 72 h
Method: Inhibition of HCV replication in human liver tissue was evaluated using the following assay.
Liver from a brain-dead HCV antibody-positive human patient was perfused with ice-cold Viaspan (Dupont Pharmaceutical) preservation solution and received on ice in Viaspan.
Precision-cut liver slices of ˜200-250 μm thickness and […] diameter were prepared and cultured in Waymouth's cell culture medium (Gibco, Inc.) that was supplemented with 10% fetal bovine serum and 10 mL/L Fungi-Bact at 37° C., and gassed with carbogen (95% O2, 5% CO2) at 0.75 liters/min. Tissue slices were maintained in culture for 72 h. Cell culture medium containing test compound in solution was changed on a daily basis.
At appropriate times of liver slice incubation, liver slices and medium were collected for analysis of HCV RNA (tissue and medium) and nucleotide levels (NTP). All collected media and tissue slices were maintained in liquid N2 until analysis.
Medium and tissue samples were analyzed for HCV RNA levels according to published procedures (Bonacini et. al., 1999) which utilize an automated, multicycle, polymerase chain reaction (PCR)-based technique. This assay has a lower limit of detection for HCV RNA of 100 viral copies/ml.

Compound: C[C@@]1(O)[C@H](O)[C@@H](CO[P@]2(=O)OCC[C@H](c3cccc(Cl)c3)O2)O[C@H]1n1cnc2c(=O)[nH]c(N)nc21 (relative stereo) [Compound 19, cis-5′-O-[4-(3-Chlorophenyl)-2-oxo-1,3,2-dioxaphosphorinan-2-yl]-2′-C-methyl-guanosine]
- Liver Targeting Index (Liver/Plasma) ([1]; C57BL/6, mouse, ip, 30 mg/kg): 26.2
- Prodrug Improvement (Fold) ([1]; C57BL/6, mouse, ip, 30 mg/kg): 30 Fold
- Log10 decrease in viral RNA from control at 48-72 h (HCV; 0.25 μM compound): 1.27 Log10
- Log10 decrease in viral RNA from control at 48-72 h (HCV; 1 μM compound): 1.61 Log10
- Log10 decrease in viral RNA from control at 48-72 h (HCV; 2.5 μM compound): 1.70 Log10
- Log10 decrease in viral RNA from control at 48-72 h (HCV; 25 μM compound): 1.72 Log10
- HCV RNA levels in the liver slice culture media versus control, untreated slices (HCV): decreased; also recorded: more effective than treatment with the nucleoside

Compound: C[C@@]1(O)[C@H](O)[C@@H](CO)O[C@H]1n1cnc2c(N)ncnc21 [2′-C-methyladenosine, reference compound]
- Plasma Nucleoside AUC ([1]; C57BL/6, mouse, iv, 5.5 mg/kg): 26.8 µM·h
- Liver NTP AUC ([1]; iv, 5.5 mg/kg): 119 nmol·h/g

Compound: C[C@@]1(O)[C@H](O)[C@@H](CO)O[C@H]1n1cnc2c(=O)[nH]c(N)nc21 [2′-C-methylguanosine, reference compound]
- Liver Targeting Index (Liver/Plasma) ([1]; C57BL/6, mouse, ip, 30 mg/kg): 0.87
- Log10 decrease in viral RNA from control at 48-72 h (HCV; 0.25 μM compound): 0.51 Log10
- Log10 decrease in viral RNA from control at 48-72 h (HCV; 2.5 μM compound): 1.74 Log10
- Log10 decrease in viral RNA from control at 48-72 h (HCV; 25 μM compound): 1.48 Log10
- HCV RNA levels in the liver slice culture media versus control, untreated slices (HCV): decreased

Compound: C[C@@]1(O)[C@H](O)[C@@H](COP2(=O)OCC[C@@H](c3cccc(Cl)c3)O2)O[C@H]1n1cnc2c(N)ncnc21 (stereo partly drawn) [Compound 21.1, cis-5′-O-[4-(S)-(3-chlorophenyl)-2-oxo-1,3,2-dioxaphosphorinan-2-yl]-2′-C-beta-methyl-adenosine trifluoroacetic acid salt]
- Liver NTP AUC ([1]; iv, 5.5 mg/kg): 502 nmol·h/g

Compound: C[C@@]1(O)[C@H](O)[C@@H](COP2(=O)OCC[C@@H](c3cccnc3)O2)O[C@H]1n1cnc2c(N)ncnc21 (stereo partly drawn) [Compound 21.9, cis-5′-O-[4-(pyridine-3-yl)-2-oxo-1,3,2-dioxaphosphorinan-2-yl]-2′-C-beta-methyl-adenosine]
- melting point: 137 to 140 °C

Compound: CC(=O)O[C@@H]1[C@@H](COP2(=O)OCC[C@H](c3ccncc3)O2)O[C@@H](n2ccc3c(N)ncnc32)[C@]1(C)O (stereo partly drawn) [Compound 22.1, 4-amino-7-(3′-acetyl-cis-5′-O-[4-(S)-(pyridin-4-yl)-2-oxo-1,3,2-dioxaphosphorinan-2-yl]-2′-C-methyl-beta-D-ribofuranosyl)-7H-pyrrolo[2,3-d]pyrimidine]
- melting point: 182 to 185 °C

Compound: CC(=O)O[C@@H]1[C@@H](COP2(=O)OCC[C@H](c3cccc(Cl)c3)O2)O[C@@H](n2ccc3c(N)ncnc32)[C@]1(C)O (stereo partly drawn) [Compound 22.2, 4-amino-7-(3′-acetyl-cis-5′-O-[4-(S)-(3-chlorophenyl)-2-oxo-1,3,2-dioxaphosphorinan-2-yl]-2′-C-methyl-beta-D-ribofuranosyl)-7H-pyrrolo[2,3-d]pyrimidine]
- melting point: 90 to 93 °C

Compound: C[C@@]12OC(=O)O[C@@H]1[C@@H](COP1(=O)OCC[C@H](c3cccc(Cl)c3)O1)O[C@H]2n1ccc2c(N)ncnc21 (stereo partly drawn) [Compound 23.1, 4-amino-7-(2′,3′-carbonyl-cis-5′-O-[4-(S)-(3-chlorophenyl)-2-oxo-4,3,2-dioxaphosphorinan-2-yl]-2′-C-methyl-beta-D-ribofuranosyl)-7H-pyrrolo[2,3-d]pyrimidine]
- melting point: 127 to 130 °C

Compound: C[C@@]12OC(=O)O[C@@H]1[C@@H](COP1(=O)OCC[C@H](c3ccncc3)O1)O[C@H]2n1ccc2c(N)ncnc21 (stereo partly drawn) [Compound 23.2, 4-amino-7-(2′,3′-carbonyl-cis-5′-O-[4-(S)-(pyridin-4-yl)-2-oxo-1,3,2-dioxaphosphorinan-2-yl]-2′-C-methyl-beta-D-ribofuranosyl)-7H-pyrrolo[2,3-d]pyrimidine]
- melting point: 192 to 195 °C

Compound: C[C@@]1(O)[C@H](O)[C@@H](CO)O[C@H]1n1ccc2c(N=[N+]=[N-])ncnc21 [Compound 25.1, 4-azido-7-(2′-C-methyl-beta-D-ribofuranosyl)-7H-pyrrolo[2,3-d]pyrimidine]
- melting point: 179 to 180 °C
